Legend:
Assay type in all cases: in vivo
[1] = test system: Echinochloa crus-galli; experiment: Method C: herbicidal post-emergence action; settings: rated visually after about 3 weeks
Procedure: (§1) Method C: Herbicidal Post-Emergence Action Seeds of mono- and dicotyledonous weed plants are placed in plastic pots in sandy loam soil (doubly sown with one species each of mono- or dicotyledonous weed plants per pot), covered with soil and cultivated in a greenhouse under controlled growth conditions. 2 to 3 weeks after sowing, the test plants are treated at the one-leaf stage. The compounds of the invention, formulated in the form of wettable powders (WP) or as emulsion concentrates (EC), are applied to the green parts of the plants as aqueous suspension or emulsion with addition of 0.5% additive at a water application rate equivalent to 600 liters per hectare. After the test plants have been kept in the greenhouse under optimum growth conditions for about 3 weeks, the activity of the preparations is rated visually in comparison to untreated controls. For example, 100% activity=the plants have died, 0% activity=like control plants.

[2] = test system: Lolium rigidum; experiment: Method C: herbicidal post-emergence action; settings: rated visually after about 3 weeks
Procedure: as §1

[3] = test system: Poa annua; experiment: Method C: herbicidal post-emergence action; settings: rated visually after about 3 weeks
Procedure: as §1

[4] = test system: Stellaria media; experiment: Method C: herbicidal post-emergence action; settings: rated visually after about 3 weeks
Procedure: as §1

[5] = test system: Abufilon theophrast; experiment: Method D: herbicidal pre-emergence action; settings: scored visually after about 3 weeks
Text: (§2) Method D: Herbicidal Pre-Emergence Action Seeds of mono- and dicotyledonous weed plants are placed in plastic pots in sandy loam soil (doubly sown with one species each of mono- or dicotyledonous weed plants per pot) and covered with soil. The compounds of the invention, formulated in the form of wettable powders (WP) or as emulsion concentrates (EC), are then applied onto the surface of the covering soil as aqueous suspension or emulsion with addition of 0.5% additive at a water application rate of 600 liters per hectare (converted). After the treatment, the pots are placed in a greenhouse and kept under good growth conditions for the trial plants. After about 3 weeks, the effect of the preparations is scored visually in comparison with untreated controls as percentages. For example, 100% activity=the plants have died, 0% activity=like control plants.

[6] = test system: Echinochloa crus-galli; experiment: Method D: herbicidal pre-emergence action; settings: scored visually after about 3 weeks
Text: as §2

[7] = test system: Lolium rigidum; experiment: Method D: herbicidal pre-emergence action; settings: scored visually after about 3 weeks
Text: as §2

[8] = test system: Matricaria inodora; experiment: Method D: herbicidal pre-emergence action; settings: scored visually after about 3 weeks
Text: as §2

[9] = test system: Poa annua; experiment: Method D: herbicidal pre-emergence action; settings: scored visually after about 3 weeks
Text: as §2

[10] = test system: Setaria viridis; experiment: Method D: herbicidal pre-emergence action; settings: scored visually after about 3 weeks
Text: as §2

[11] = test system: Stellaria media; experiment: Method D: herbicidal pre-emergence action; settings: scored visually after about 3 weeks
Text: as §2

[12] = test system: Agrostis tenuis; experiment: Method E: herbicidal early post-emergence action; settings: cotyledon stage, 96-well microtiter plates, scored visually after 9 to 12 days
Procedure: (§3) Method E: Herbicidal Early Post-Emergence Action Seeds of monocotyledonous or dicotyledonous weed plants are placed in 96-well microtiter plates in quartz sand and grown in a climatized chamber under controlled growth conditions. 5 to 7 days after sowing, the test plants are treated at the cotyledon stage. The compounds of the invention, formulated in the form of emulsion concentrates (EC), are applied with a water application rate of the equivalent of 2200 liters per hectare. After the test plants had been left to stand in the climatized chamber for 9 to 12 days under optimum growth conditions, the effect of the preparations is scored visually in comparison to untreated controls. For example, 100% activity=the plants have died, 0% activity=like control plants.

[13] = test system: Lolium perenne; experiment: Method E: herbicidal early post-emergence action; settings: cotyledon stage, 96-well microtiter plates, scored visually after 9 to 12 days
Procedure: as §3

[14] = test system: Matricaria chamonilla; experiment: Method E: herbicidal early post-emergence action; settings: cotyledon stage, 96-well microtiter plates, scored visually after 9 to 12 days
Procedure: as §3

[15] = test system: Poa annua; experiment: Method E: herbicidal early post-emergence action; settings: cotyledon stage, 96-well microtiter plates, scored visually after 9 to 12 days
Procedure: as §3

[16] = test system: Stellaria media; experiment: Method E: herbicidal early post-emergence action; settings: cotyledon stage, 96-well microtiter plates, scored visually after 9 to 12 days
Procedure: as §3

[17] = test system: harmful plants; experiment: Method C: herbicidal post-emergence action, summary in text; settings: applied post-emergence, table C (1280 g/ha)
Procedure: as §1

[18] = test system: harmful plants; experiment: Method D: herbicidal pre-emergence action, summary in text; settings: applied pre-emergence, table D (1280 g/ha)
Text: as §2

[19] = test system: harmful plants; experiment: Method E: herbicidal early post-emergence action, summary in text; settings: applied in early post-emergence, table E (1900 g/ha)
Procedure: as §3

[20] = test system: Alopecurus myosuroides; experiment: Method A: post-emergence herbicidal action; settings: rated visually after about 3 weeks
Procedure: (§4) Method A: Post-Emergence Herbicidal Action and Crop Plant Compatibility
(§5) Seeds of monocotyledonous and dicotyledonous weeds and crop plants are placed in sandy loam in plastic or organic planting pots, covered with soil and cultivated in a greenhouse under controlled growth conditions. 2 to 3 weeks after sowing, the test plants are treated at the one-leaf stage. The compounds of the invention, formulated in the form of wettable powders (WP) or as emulsion concentrates (EC), are then sprayed onto the green parts of the plants as aqueous suspension or emulsion with addition of 0.5% additive at a water application rate of […] (converted). After the test plants have been kept in the greenhouse under optimum growth conditions for about 3 weeks, the activity of the preparations is rated visually in comparison to untreated controls. For example, 100% activity=the plants have died, 0% activity=like control plants.

[21] = test system: Avena fatua; experiment: Method A: post-emergence herbicidal action; settings: rated visually after about 3 weeks
Procedure: as §4, §5

[22] = test system: Echinochloa crus-galli; experiment: Method A: post-emergence herbicidal action; settings: rated visually after about 3 weeks
Procedure: as §4, §5

[23] = test system: Hordeum murinum; experiment: Method A: post-emergence herbicidal action; settings: rated visually after about 3 weeks
Procedure: as §4, §5

[24] = test system: Lolium rigidum; experiment: Method A: post-emergence herbicidal action; settings: rated visually after about 3 weeks
Procedure: as §4, §5

[25] = test system: Polygonum convolvulus; experiment: Method A: post-emergence herbicidal action; settings: rated visually after about 3 weeks
Procedure: as §4, §5

[26] = test system: Stellaria media; experiment: Method A: post-emergence herbicidal action; settings: rated visually after about 3 weeks
Procedure: as §4, §5

[27] = test system: Abufilon theophrast; experiment: Method B: pre-emergence herbicidal action; settings: scored visually after about 3 weeks
Text: (§6) Method B: Pre-Emergence Herbicidal Action and Crop Plant Compatibility
as §2, with “Seeds” for “Method D: Herbicidal Pre-Emergence Action Seeds”, “monocotyledonous” for “mono-”, “weed plants and crop” for “weed”, “plastic or organic planting” for “plastic”, “pots” for “pots in sandy loam soil (doubly sown with one species each of mono- or dicotyledonous weed plants per pot)”, “[…]” for “600 liters per hectare”

[28] = test system: Alopecurus myosuroides; experiment: Method B: pre-emergence herbicidal action; settings: scored visually after about 3 weeks
Text: as §6
as §2, with “Seeds” for “Method D: Herbicidal Pre-Emergence Action Seeds”, “monocotyledonous” for “mono-”, “weed plants and crop” for “weed”, “plastic or organic planting” for “plastic”, “pots” for “pots in sandy loam soil (doubly sown with one species each of mono- or dicotyledonous weed plants per pot)”, “[…]” for “600 liters per hectare”

[29] = test system: Avena fatua; experiment: Method B: pre-emergence herbicidal action; settings: scored visually after about 3 weeks
Text: as §6
as §2, with “Seeds” for “Method D: Herbicidal Pre-Emergence Action Seeds”, “monocotyledonous” for “mono-”, “weed plants and crop” for “weed”, “plastic or organic planting” for “plastic”, “pots” for “pots in sandy loam soil (doubly sown with one species each of mono- or dicotyledonous weed plants per pot)”, “[…]” for “600 liters per hectare”

[30] = test system: Digitaria sanguinalis; experiment: Method B: pre-emergence herbicidal action; settings: scored visually after about 3 weeks
Text: as §6
as §2, with “Seeds” for “Method D: Herbicidal Pre-Emergence Action Seeds”, “monocotyledonous” for “mono-”, “weed plants and crop” for “weed”, “plastic or organic planting” for “plastic”, “pots” for “pots in sandy loam soil (doubly sown with one species each of mono- or dicotyledonous weed plants per pot)”, “[…]” for “600 liters per hectare”

[31] = test system: Echinochloa crus-galli; experiment: Method B: pre-emergence herbicidal action; settings: scored visually after about 3 weeks
Text: as §6
as §2, with “Seeds” for “Method D: Herbicidal Pre-Emergence Action Seeds”, “monocotyledonous” for “mono-”, “weed plants and crop” for “weed”, “plastic or organic planting” for “plastic”, “pots” for “pots in sandy loam soil (doubly sown with one species each of mono- or dicotyledonous weed plants per pot)”, “[…]” for “600 liters per hectare”

[32] = test system: Hordeum murinum; experiment: Method B: pre-emergence herbicidal action; settings: scored visually after about 3 weeks
Text: as §6
as §2, with “Seeds” for “Method D: Herbicidal Pre-Emergence Action Seeds”, “monocotyledonous” for “mono-”, “weed plants and crop” for “weed”, “plastic or organic planting” for “plastic”, “pots” for “pots in sandy loam soil (doubly sown with one species each of mono- or dicotyledonous weed plants per pot)”, “[…]” for “600 liters per hectare”

[33] = test system: Lolium rigidum; experiment: Method B: pre-emergence herbicidal action; settings: scored visually after about 3 weeks
Text: as §6
as §2, with “Seeds” for “Method D: Herbicidal Pre-Emergence Action Seeds”, “monocotyledonous” for “mono-”, “weed plants and crop” for “weed”, “plastic or organic planting” for “plastic”, “pots” for “pots in sandy loam soil (doubly sown with one species each of mono- or dicotyledonous weed plants per pot)”, “[…]” for “600 liters per hectare”

[34] = test system: Polygonum convolvulus; experiment: Method B: pre-emergence herbicidal action; settings: scored visually after about 3 weeks
Text: as §6
as §2, with “Seeds” for “Method D: Herbicidal Pre-Emergence Action Seeds”, “monocotyledonous” for “mono-”, “weed plants and crop” for “weed”, “plastic or organic planting” for “plastic”, “pots” for “pots in sandy loam soil (doubly sown with one species each of mono- or dicotyledonous weed plants per pot)”, “[…]” for “600 liters per hectare”

[35] = test system: Stellaria media; experiment: Method B: pre-emergence herbicidal action; settings: scored visually after about 3 weeks
Text: as §6
as §2, with “Seeds” for “Method D: Herbicidal Pre-Emergence Action Seeds”, “monocotyledonous” for “mono-”, “weed plants and crop” for “weed”, “plastic or organic planting” for “plastic”, “pots” for “pots in sandy loam soil (doubly sown with one species each of mono- or dicotyledonous weed plants per pot)”, “[…]” for “600 liters per hectare”

[36] = test system: harmful plants; experiment: Method A: post-emergence herbicidal action, summary in text; settings: applied post-emergence, table A (320 g/ha)
Procedure: as §4, §5

[37] = test system: harmful plants; experiment: Method B: pre-emergence herbicidal action, summary in text; settings: applied pre-emergence, table B (320 g/ha)
Text: as §6
as §2, with “Seeds” for “Method D: Herbicidal Pre-Emergence Action Seeds”, “monocotyledonous” for “mono-”, “weed plants and crop” for “weed”, “plastic or organic planting” for “plastic”, “pots” for “pots in sandy loam soil (doubly sown with one species each of mono- or dicotyledonous weed plants per pot)”, “[…]” for “600 liters per hectare”

CN(NC(=O)C(=O)Cc1nc(C2CC2)ncc1-c1ccccc1Cl)C(=O)OC(C)(C)C [IV-137, tert-butyl 2-{3-[5-(2-chlorophenyl)-2-cyclopropylpyrimidin-4-yl]-2-oxopropanoyl}-1-methylhydrazinecarboxylate]
Post-emergence action at 1280 g/ha ECHCG [1]: 100%
Post-emergence action at 1280 g/ha LOLRI [2]: 100%
Post-emergence action at 1280 g/ha POAAN [3]: 100%
Post-emergence action at 1280 g/ha STEME [4]: 100%
Pre-emergence action at 1280 g/ha ABUTH [5]: 90%
Pre-emergence action at 1280 g/ha ECHCG [6]: 90%
Pre-emergence action at 1280 g/ha LOLRI [7]: 90%
Pre-emergence action at 1280 g/ha MATIN [8]: 90%
Pre-emergence action at 1280 g/ha POAAN [9]: 100%
Pre-emergence action at 1280 g/ha SETVI [10]: 90%
Pre-emergence action at 1280 g/ha STEME [11]: 100%
Early post-emergence action at 1900 g/ha AGSTE [12]: 100%
Early post-emergence action at 1900 g/ha LOLPE [13]: 80%
Early post-emergence action at 1900 g/ha MATCH [14]: 80%
Early post-emergence action at 1900 g/ha POAAN [15]: 80%
Early post-emergence action at 1900 g/ha STEME [16]: 100%
herbicidal efficacy against harmful plants [17]: very good herbicidal efficacy
herbicidal efficacy against harmful plants [18]: very good herbicidal efficacy
herbicidal efficacy against harmful plants [19]: very good herbicidal efficacy

CN(C)C(=O)C(=O)Cc1nc(C2CC2)ncc1-c1ccccc1Cl [Example I-139, 3-[5-(2-chlorophenyl)-2-cyclopropylpyrimidin-4-yl]-N,N-dimethyl-2-oxopropanamide]
Post-emergence action at 320 g/ha ALOMY [20]: 100%
Post-emergence action at 320 g/ha AVEFA [21]: 90%
Post-emergence action at 320 g/ha ECHCG [22]: 90%
Post-emergence action at 320 g/ha HORMU [23]: 90%
Post-emergence action at 320 g/ha LOLRI [24]: 100%
Post-emergence action at 320 g/ha POLCO [25]: 90%
Post-emergence action at 320 g/ha STEME [26]: 80%
Pre-emergence action at 320 g/ha ABUTH [27]: 80%
Pre-emergence action at 320 g/ha ALOMY [28]: 100%
Pre-emergence action at 320 g/ha AVEFA [29]: 80%
Pre-emergence action at 320 g/ha DIGSA [30]: 100%
Pre-emergence action at 320 g/ha ECHCG [31]: 100%
Pre-emergence action at 320 g/ha HORMU [32]: 90%
Pre-emergence action at 320 g/ha LOLRI [33]: 100%
Pre-emergence action at 320 g/ha POLCO [34]: 90%
Pre-emergence action at 320 g/ha STEME [35]: 100%
Early post-emergence action at 1900 g/ha AGSTE [12]: 100%
Early post-emergence action at 1900 g/ha LOLPE [13]: 80%
Early post-emergence action at 1900 g/ha MATCH [14]: 100%
Early post-emergence action at 1900 g/ha POAAN [15]: 100%
Early post-emergence action at 1900 g/ha STEME [16]: 100%
herbicidal efficacy against harmful plants [36]: very good herbicidal efficacy
herbicidal efficacy against harmful plants [37]: very good herbicidal efficacy

Reference: patent publication US11390589B2, “Herbicidally active substituted phenylpyrimidines” (Bayer Aktiengesellschaft, priority 2018, dated 2022)
